Legend:
Details in all cases: 72 h
Vero E6 [1] = experiment: drug sensitivity score (DSS) for viability; higher = more toxic; extreme values may be limits of the assay
Calu-3 [2] = experiment: as above
Caco-2 [3] = experiment: as above
HepG2 [4] = experiment: as above
U2OS [5] = experiment: as above
Vero E6 [6] = experiment: cell viability relative to DMSO; higher = less toxic
Calu-3 [7] = experiment: as above
Caco-2 [8] = experiment: as above
HepG2 [9] = experiment: as above
U2OS [10] = experiment: as above
Vero E6 [11] = experiment: relative viability EC50 (midpoint between 100% and the lowest measured viability); higher = less toxic
Calu-3 [12] = experiment: as above
Caco-2 [13] = experiment: as above
HepG2 [14] = experiment: as above
U2OS [15] = experiment: as above

| Compound | drug sensitivity score (Vero E6 [1]) | drug sensitivity score (Calu-3 [2]) | drug sensitivity score (Caco-2 [3]) | drug sensitivity score (HepG2 [4]) | drug sensitivity score (U2OS [5]) | cell viability (Vero E6 [6]; 1 nM) | cell viability (Vero E6 [6]; 10 nM) | cell viability (Vero E6 [6]; 100 nM) | cell viability (Vero E6 [6]; 1000 nM) | cell viability (Vero E6 [6]; 10000 nM) | cell viability (Calu-3 [7]; 1 nM) | cell viability (Calu-3 [7]; 10 nM) | cell viability (Calu-3 [7]; 100 nM) | cell viability (Calu-3 [7]; 1000 nM) | cell viability (Calu-3 [7]; 10000 nM) | cell viability (Caco-2 [8]; 1 nM) | cell viability (Caco-2 [8]; 10 nM) | cell viability (Caco-2 [8]; 100 nM) | cell viability (Caco-2 [8]; 1000 nM) | cell viability (Caco-2 [8]; 10000 nM) | cell viability (HepG2 [9]; 1 nM) | cell viability (HepG2 [9]; 10 nM) | cell viability (HepG2 [9]; 100 nM) | cell viability (HepG2 [9]; 1000 nM) | cell viability (HepG2 [9]; 10000 nM) | cell viability (U2OS [10]; 1 nM) | cell viability (U2OS [10]; 10 nM) | cell viability (U2OS [10]; 100 nM) | cell viability (U2OS [10]; 1000 nM) | cell viability (U2OS [10]; 10000 nM) | relative viability EC50 (Vero E6 [11]) | relative viability EC50 (Calu-3 [12]) | relative viability EC50 (Caco-2 [13]) | relative viability EC50 (HepG2 [14]) | relative viability EC50 (U2OS [15]) |
| --- | --- | --- | --- | --- | --- | --- | --- | --- | --- | --- | --- | --- | --- | --- | --- | --- | --- | --- | --- | --- | --- | --- | --- | --- | --- | --- | --- | --- | --- | --- | --- | --- | --- | --- | --- |
| C[C@]12CCC(=O)C=C1CC[C@@H]1[C@@H]2[C@@H](O)C[C@@]2(C)[C@H]1CC[C@]2(O)C(=O)COP(=O)(O)O [hydrocortisone-phosphate] | 0 | 0 | 0 | 0.1 | 0 | 106% | 100% | 106% | 100% | 104% | 98.3% | 102% | 98.5% | 99.8% | 93.8% | 100% | 101% | 103% | 110% | 94.1% | 99.2% | 99.8% | 105% | 89.5% | 94.3% | 101% | 101% | 97.1% | 100% | 95% | > 10 µM | > 10 µM | > 10 µM | > 10 µM | > 10 µM |
| CC1(C)Oc2ccc(C#N)cc2[C@@H](N2CCCC2=O)[C@@H]1O [levcromakalim] | 0 | 0 | 0 | 0 | 0 | 92.1% | 96.6% | 97.1% | 97.2% | 93.7% | 85.7% | 105% | 91.8% | 104% | 102% | 96.5% | 99.7% | 99.1% | 88.5% | 99.6% | 109% | 105% | 98% | 101% | 96.2% | 103% | 102% | 99.4% | 98% | 101% | > 10 µM | > 10 µM | > 10 µM | > 10 µM | > 10 µM |
| N=C(N)NC(=O)Cc1c(Cl)cccc1Cl [guanfacine] | 0 | 0 | 0 | 0 | 0 | 93.8% | 105% | 101% | 104% | 89.8% | 92.7% | 83.6% | 98.9% | 91.7% | 99.1% | 93.9% | 95.7% | 110% | 104% | 100% | 88.5% | 95.2% | 93.3% | 94% | 101% | 102% | 93.1% | 104% | 97.4% | 100% | > 10 µM | > 10 µM | > 10 µM | > 10 µM | > 10 µM |
| CCCCCCCCCCCCC[N+](C)(C)Cc1ccccc1 [benzalkonium] | 0 | 3.6 | 3.9 | 3.4 | 5.9 | 89% | 101% | 96.1% | 105% | 92.4% | 104% | 98.9% | 97% | 98.8% | 37.3% | 102% | 102% | 110% | 108% | 19.5% | 96.1% | 108% | 102% | 116% | 22.9% | 97.7% | 91.8% | 102% | 92.9% | 13.7% | > 10 µM | 3.02 µM | 3.62 µM | 3.95 µM | 2.49 µM |
| CCCCOCCOc1nc(-c2ccc(C(=O)O)c(F)c2)sc1C | 0 | 1 | 0.4 | 0 | 0.1 | 100% | 99.7% | 97.5% | 99.9% | 90.8% | 109% | 104% | 109% | 89.8% | 84.8% | 94.1% | 97.2% | 94.6% | 100% | 82% | 97.5% | 104% | 105% | 102% | 102% | 103% | 102% | 96.5% | 89.6% | 90.1% | > 10 µM | > 10 µM | > 10 µM | > 10 µM | > 10 µM |
| O=C1CCC[C@@H]2[C@H]3CCC[N+]4([O-])CCC[C@@H](CN12)[C@@H]34 (stereo not given in full) [oxymatrine] | 0 | 0 | 0 | 0 | 0 | 102% | 97.5% | 101% | 98.4% | 104% | 89% | 93.1% | 101% | 91.7% | 86.9% | 97.1% | 103% | 96.6% | 95.5% | 88.3% | 104% | 97.6% | 98.5% | 96.3% | 108% | 97.8% | 106% | 98% | 102% | 96.7% | > 10 µM | > 10 µM | > 10 µM | > 10 µM | > 10 µM |
| CC(C)N(CCc1c[nH]c2ccccc12)C(C)C [DIPT] | 0 | 0 | 0 | 0 | 0 | 103% | 98.9% | 101% | 95.1% | 97.4% | 85.7% | 95.4% | 97.5% | 96% | 103% | 95% | 103% | 107% | 101% | 102% | 93.2% | 86.3% | 99.5% | 86% | 95.7% | 101% | 99.7% | 98.2% | 102% | 96.6% | > 10 µM | > 10 µM | > 10 µM | > 10 µM | > 10 µM |
